According to patent US4933368A, “N-phenylbenzamide derivatives” (Godecke Aktiengesellschaft, priority 1983, dated 1990):
Entries after “also recorded” stand apart in the source; their conditions may differ.

What was measured:
allogeneic skin grafts [1] = assay: Trial I, skin graft survival test in rats (recipient Long Evans, donor Lewis), vs azathioprine + methylprednisolone; type: in vivo
Experimental: Route of Intragastric via stomach tube,
suspended in 0.8% Methocel
Volume: 0.01 ml per gram body weight and dose
Trial I/from Day -3 before grafting to Day +6
Trial I/10 mg/kg over 6 days, afterwards 5 mg/kg
Two allogeneic skin grafts from a donor rat are transferred to a receiving rat from an unrelated inbred strain. The panniculus carnosus attached to the graft may either be removed by dissection (suprapannicular graft) or be left on the graft (subpannicular graft). Grafting is conducted on Day 0 under light ether narcosis subsequent to shaving and cleanup of the grafting sites. The grafts are fixed on the graft receptor sites by dressing with a suitable bandage. From Day +9 a protective colar is placed on the animals, the bandage removed, and the status of the grafts daily controlled. The assessment of the graft function is conducted by means of a graduation scale, which allows for differentiation of rejection corresponding to a three-degree of severity score. The trial ends on the day when 50% of the animals of one group have rejected both grafts. The lengthening of the graft survival time in comparison to the controls is determined in days.
Recipient: Long Evans .male., Donor: Lewis .male.. Two suprapannicular grafts were transferred from a donor to a recipient.

[2] = system: HCT-8 human colon xenograft; assay: HCT-8 human colon xenograft in nude mice (CCTM test); type: in vivo
Description: Doses just under the acutely lethal dose can be given indefinitely (for more than 30 days), during which the treated animals regain their initial weight loss.
The two types of assays used were the standard CCTM test for solid tumors and the CCLS test for leukemia.
The CCTM assay assesses the antitumor activity of a test agent by measurement of the treatment-induced delay of tumor growth. Tumor growth delay is used because, unlike T/C type assays, the measured parameter is […].
Test animals are Fl hybrid mice derived from the inbred strain of tumor origin. […]
Test agents are dissolved or suspended in any of several vehicles and are administered by the routes and treatment schedules specified on the test protocol. All animals are monitored for signs of acute toxicity and side effects.
Survival is checked daily for each test group. Both the number dead and the number living are counted and recorded. […] Clinical signs are observed and recorded for all test groups. Individual body weights are recorded at least weekly as directed in the specific test protocol. Each tumor is measured with calipers as per the protocol (usually two to three times/week). […]
Td=tumor volume doubling time (days), calculated from the slope of a long-linear least squares fit of the growth curve between 63 and 1000 mg for each control tumor. […]

allogeneic skin grafts [3] = assay: Skin graft survival test in rhesus monkeys; type: in vivo, rhesus monkeys (Macaca mulatta); conditions: for lengthening of the normal graft survival time: 10 mg/kg i.g. 1× daily for 10 days, vs normal survival stated as ten days
Experimental: Preparation: Freshly prepared before each
Route of Intragastric via stomach tube,
administration: suspended in 0.8% Methocel
Altogether four allogeneic skin grafts from two different donor animals are transferred crosswise to one unrelated receiving animal. At first the grafts are removed under ketamine narcosis from the shaven and cleaned stomach skin of the donor animals and freed of any fat attached. The four graft receptor sites are prepared on the shaven and cleaned back of the receiving animal under ketamine narcosis by removing suitably sized pieces of skin. Subsequent to successful hemostasis, the grafts are spread out on the graft receptor sites and sewn to the edges of the wound. The wound is covered with a suitable dressing material and this is fixed with an elastic bandage. The bandage is opened on the 5th, 7th, and 9th day after grafting and the function of the grafts examined. On the 9th day the bandage is no longer replaced. The graft function is then controlled daily until rejection has occurred.
Controls are dispensed within this trial on primates for ethical reasons. Comparisons are drawn with the normal survival of allogeneic skin grafts or historic controls, stated as ten days.

Lewis Lung Tumor = assay: Lewis Lung Tumor, growth retardation in mice; type: in vivo, BCBA mice; conditions: for Surviving Animals: n = 5
Experimental: (§1) Preparation: As suspension freshly prepared
(§2) before each administration
(§3) Route of Oral, suspended in 0.8%
(§4) administration: Methocel
(§5) Volume: 0.01 per gram body weight
(§6) daily for 9 days, if not
Lewis Lung Tumor in BCBA mice. The procedure is the same as with osteosarcoma. The volume of the tumor was determined here at 800 mm^3 (=product of the diameters in three dimensions).

in vivo = conditions: mouse, po
Osteosarcoma C22LR = assay: Osteosarcoma C22LR, growth retardation in mice; type: in vivo, BCBA mice; conditions: for Surviving Animals: n = 5
Experimental: as §1, §2, §3, §4, §5, §6
Osteosarcoma. C22LR in BCBA mice (C57B1×CBA/Rij, Fl hybrid). The tumor is subcutaneously inoculated bilaterally into the sides. It is measured at least 2×weekly in three dimensions. The terminal point is the retardation of growth. It is defined as the difference of the average time in which the volume of five to ten tumors in five treated animals reaches a given value in comparison with that of five to ten tumors in the control animals. This value was determined as four times that of the average volume at commencement of treatment.

Electro-convulsion = assay: Maximal electroconvulsion test; type: in vivo; conditions: Mus musculus, po; i.g., mice

In the case of `Nc1ccc(C(=O)Nc2ccccc2N)cc1` [Substance A, 4-Amino-N-(2'-aminophenyl)-benzamide], the “effect compared with standard medication” value (allogeneic skin grafts [1]; Trial I, vs azathioprine and methylprednisolone) is reported as “superior to an immunosuppressive standard medication comprising azathioprine and methylprednisolone”, the “effect compared with comparison medication” value (allogeneic skin grafts [1]; rats, both trials, far smaller substance quantities) is reported as “at least equally as effective as the comparison medication” and the anticancer activity ([2]; HCT-8 human colon tumor xenograft) is reported as “significant anticancer activity has been demonstrated and confirmed”. The “(T-C) tumor growth delay” value ([2]; SC PO, Days 9-24, 69 mg/kg) was 13 days, the immunosuppressive action (allogeneic skin grafts [3]; rhesus monkeys, 10 mg/kg i.g., 10 mg/kg) was “distinct immunosuppressive action; also recorded: markedly clear” and the “lengthening of the normal graft survival time” value (allogeneic skin grafts [3]; test animal YL) was “four to five”. The “lengthening of the normal graft survival time” value (allogeneic skin grafts [3]; test animal ZE) was “six to seven”, the “Surviving Animals” value (Lewis Lung Tumor; 1 × 240 mg/kg PO) was 5/5 and the “Retardation in Growth of Tumor (Days)” value (Lewis Lung Tumor; 1 × 240 mg/kg PO, p = 0,018) was 3,1 Days. For the same compound, the “Retardation in Growth of Tumor (toxic death)” value (“Retardation … (toxic death)” below) (Lewis Lung Tumor; 2 × 180 mg/kg PO) was “toxic death”, the “Surviving Animals” value (Lewis Lung Tumor; 2 × 180 mg/kg PO) was 0/5 and the “Retardation … (toxic death)” value (Lewis Lung Tumor; 4 × 120 mg/kg PO) was “toxic death”. The “Surviving Animals” value (Lewis Lung Tumor; 4 × 120 mg/kg PO) was 0/5, the “Surviving Animals” value (Lewis Lung Tumor; 9 × 60 mg/kg IP, controls 5/5) was 5/5 and the “Retardation in Growth of Tumor (Days)” value (Lewis Lung Tumor; 9 × 60 mg/kg IP, p = 0,061) was 3,8 Days. For the same compound, the assessment of activity (Lewis Lung Tumor; mouse, in vivo) was “moderate activity”, the LD50 at 168 h (in vivo) was 625 mg/kg and the “Surviving Animals” value (Osteosarcoma C22LR; 1 × 240 mg/kg PO) was 5/5. For the same compound, the “Retardation in Growth of Tumor (Days)” value (Osteosarcoma C22LR; 1 × 240 mg/kg PO, p = 0,001) was 3,1 Days, the “Retardation in Growth of Tumor (Days)” value (Osteosarcoma C22LR; 2 × 180 mg/kg PO) was 9,6 Days and the “Surviving Animals” value (Osteosarcoma C22LR; 2 × 180 mg/kg PO) was 1/5. The “Retardation … (toxic death)” value (Osteosarcoma C22LR; 4 × 120 mg/kg PO) was “toxic death”, the “Surviving Animals” value (Osteosarcoma C22LR; 9 × 60 mg/kg IP, controls 5/5) was 5/5 and the “Retardation in Growth of Tumor (Days)” value (Osteosarcoma C22LR; 9 × 60 mg/kg IP, p = 0,0001) was 7,8 Days. The assessment of activity (Osteosarcoma C22LR; mouse, in vivo) was “good activity” and the ED50 (Electro-convulsion) was 30 mg/kg.
